Results taken from PubChem BioAssay AID248 (DTP/NCI, 2004).
“And” between values parts separate entries of the source, which are not always exact repeats. Identical values can stand only once. Inconclusive results and toxic doses are left out.

Test system: L1210 leukemia ip in BDF1 mice, survival T/C
Experiment: NCI In Vivo Anticancer Drug Screen. Data for tumor model L1210 Leukemia (intraperitoneal) in B6D2F1 (BDF1) mice
Conditions: endpoint: mean survival time, higher = longer survival
How it was run: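 Transplanted-tumor mice were given test agent; controls received vehicle only. Survival readings from the two groups were divided (treated over control).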

[1] = dose: 100.0 mg/kg/injection, schedule: Q01DX001 (ip), vehicle: saline with Tween-80
[2] = dose: 400.0 mg/kg/injection, schedule: Q01DX001 (ip), vehicle: saline with Tween-80

NC(N)=N/N=C(/c1ccccc1)c1ccc(O)cc1O
T/C (dose: 15.0 mg/kg/injection, schedule: Q01DX Z (ip), vehicle: saline): 101 % of control | T/C (dose: 30.0 mg/kg/injection, schedule: Q01DX Z (ip), vehicle: saline): 92 % of control | T/C (dose: 60.0 mg/kg/injection, schedule: Q01DX Z (ip), vehicle: saline): 94 % of control | T/C (dose: 120.0 mg/kg/injection, schedule: Q01DX Z (ip), vehicle: saline): 92 % of control | T/C (dose: 120.0 mg/kg/injection, schedule: Q01DX Z (oral), vehicle: saline): 101 % of control | T/C (dose: 240.0 mg/kg/injection, schedule: Q01DX Z (ip), vehicle: saline): 108 % of control | T/C (dose: 240.0 mg/kg/injection, schedule: Q01DX Z (oral), vehicle: saline): 102 % of control | T/C (dose: 480.0 mg/kg/injection, schedule: Q01DX Z (oral), vehicle: saline): 101 % of control | T/C (dose: 960.0 mg/kg/injection, schedule: Q01DX Z (oral), vehicle: saline): 98 % of control

CNC(=O)Oc1ccccc1C(N)=O
T/C (dose: 25.0 mg/kg/injection, schedule: Q01DX009 (ip), vehicle: Klucel (hydroxypropylcellulose) (HPC)): 110 % of control | T/C (dose: 50.0 mg/kg/injection, schedule: Q01DX009 (ip), vehicle: Klucel (hydroxypropylcellulose) (HPC)): 96 % of control | T/C (dose: 100.0 mg/kg/injection, schedule: Q01DX009 (ip), vehicle: Klucel (hydroxypropylcellulose) (HPC)): 96 % of control and 92 % of control

CN=NNc1nc[nH]c1C(=O)OC
T/C (dose: 50.0 mg/kg/injection, schedule: Q01DX001 (ip), vehicle: carboxymethylcellulose (CMC)): 118 % of control | T/C (dose: 100.0 mg/kg/injection, schedule: Q01DX001 (ip), vehicle: carboxymethylcellulose (CMC)): 118 % of control | T/C (dose: 200.0 mg/kg/injection, schedule: Q01DX001 (ip), vehicle: carboxymethylcellulose (CMC)): 118 % of control | T/C (dose: 400.0 mg/kg/injection, schedule: Q01DX001 (ip), vehicle: carboxymethylcellulose (CMC)): 113 % of control

OCC1OC(n2ccc3cncnc32)C(O)C1O (stereo not drawn)
T/C (dose: 5.0 mg/kg/injection, schedule: Q01DX001 (ip), vehicle: saline): 106 % of control | T/C (dose: 10.0 mg/kg/injection, schedule: Q01DX001 (ip), vehicle: saline): 109 % of control | T/C (dose: 20.0 mg/kg/injection, schedule: Q01DX001 (ip), vehicle: saline): 106 % of control | T/C (dose: 40.0 mg/kg/injection, schedule: Q01DX001 (ip), vehicle: saline): 106 % of control

CC(CO)CCC(O)C(C)C1CCC2C3CCC4CC(O)CCC4(C)C3CCC12C (stereo not drawn)
T/C (dose: 6.25 mg/kg/injection, schedule: Q01DX001 (ip), vehicle: saline with Tween-80): 91 % of control | T/C (dose: 12.5 mg/kg/injection, schedule: Q01DX001 (ip), vehicle: saline with Tween-80): 91 % of control | T/C (dose: 25.0 mg/kg/injection, schedule: Q01DX001 (ip), vehicle: saline with Tween-80): 90 % of control | T/C [1]: 92 % of control | T/C [2]: 92 % of control

CCOC(=O)NC(=O)Nc1ncn[nH]1
T/C (dose: 100.0 mg/kg/injection, schedule: Q04DX003 (ip), vehicle: saline): 97 % of control | T/C (dose: 200.0 mg/kg/injection, schedule: Q04DX003 (ip), vehicle: saline): 94 % of control | T/C (dose: 400.0 mg/kg/injection, schedule: Q04DX003 (ip), vehicle: saline): 94 % of control

CC[C@@H](O)C[C@H]1CCC[C@@]2(C[C@@H]3OC(=O)/C=C/[C@@](C)(O)[C@@H](O)[C@H](C)[C@@H](O)[C@H](OC4CCC(N(C)C)C(C)O4)[C@@H](O)[C@](C)(O)CCCCC/C=C/[C@@H]4CC(C)(C)O[C@@]4(O)C[C@H](O2)[C@H]3C)O1 (stereo partly drawn)
T/C (dose: 0.25 mg/kg/injection, schedule: Q04DX003 (ip), vehicle: saline): 104 % of control | T/C (dose: 0.5 mg/kg/injection, schedule: Q04DX003 (ip), vehicle: saline): 111 % of control | T/C (dose: 1.0 mg/kg/injection, schedule: Q04DX003 (ip), vehicle: saline): 94 % of control | T/C (dose: 150.0 micrograms/kg/injection, schedule: Q01DX Z (sc), vehicle: steriod suspending solution): 108 % of control | T/C (dose: 230.0 micrograms/kg/injection, schedule: Q01DX Z (sc), vehicle: steriod suspending solution): 102 % of control | T/C (dose: 345.0 micrograms/kg/injection, schedule: Q01DX Z (sc), vehicle: steriod suspending solution): 91 % of control

CC(C)C(N)C(=O)NCCCCC(N)C(=O)O (stereo not drawn)
T/C (dose: 25.0 mg/kg/injection, schedule: Q04DX002 (ip), vehicle: saline): 103 % of control | T/C (dose: 50.0 mg/kg/injection, schedule: Q04DX002 (ip), vehicle: saline): 103 % of control | T/C (dose: 100.0 mg/kg/injection, schedule: Q04DX002 (ip), vehicle: saline): 100 % of control

CCn1c(=S)[nH]c(/C=N/N(CCO)CCO)c(C)c1=O
T/C [1]: 103 % of control | T/C (dose: 200.0 mg/kg/injection, schedule: Q01DX001 (ip), vehicle: saline with Tween-80): 103 % of control | T/C [2]: 95 % of control

CCC(=O)N(N=O)c1ccccc1
T/C (dose: 18.8 mg/kg/injection, schedule: Q01DX001 (ip), vehicle: saline): 91 % of control

O=C(CC(O)c1ccccc1)Nc1cccnc1 (stereo not drawn)
T/C (dose: 100.0 mg/kg/injection, schedule: Q01DX001 (ip), vehicle: other): 96 % of control

CC(=O)OC1C=CC(=O)OC1C1OC1C (stereo not drawn)
T/C (dose: 4.0 mg/kg/injection, schedule: Q01DX Z (ip), vehicle: saline): 100 % of control | T/C (dose: 6.0 mg/kg/injection, schedule: Q01DX Z (ip), vehicle: saline): 111 % of control | T/C (dose: 9.0 mg/kg/injection, schedule: Q01DX Z (ip), vehicle: saline): 110 % of control | T/C (dose: 13.0 mg/kg/injection, schedule: Q01DX Z (ip), vehicle: saline): 100 % of control and 108 % of control | T/C (dose: 19.0 mg/kg/injection, schedule: Q01DX Z (ip), vehicle: saline): 103 % of control | T/C (dose: 29.0 mg/kg/injection, schedule: Q01DX Z (ip), vehicle: saline): 103 % of control

CC1CC(C)CC(C(O)C2CCCCC2)C1 (stereo not drawn)
T/C (dose: 75.0 mg/kg/injection, schedule: Q01DX001 (ip), vehicle: other): 101 % of control | T/C (dose: 150.0 mg/kg/injection, schedule: Q01DX001 (ip), vehicle: other): 106 % of control

CC(C)(C)P1(=O)OCC(c2ccccc2)CO1 (stereo not drawn)
T/C (dose: 100.0 mg/kg/injection, schedule: Q04DX003 (ip), vehicle: other): 101 % of control | T/C (dose: 200.0 mg/kg/injection, schedule: Q04DX003 (ip), vehicle: other): 107 % of control

CC(=O)C(C(C)=O)c1cc(NS(=O)(=O)N(C)C)ccc1NS(=O)(=O)N(C)C
T/C (dose: 75.0 mg/kg/injection, schedule: Q04DX003 (ip), vehicle: Klucel (hydroxypropylcellulose) (HPC)): 89 % of control | T/C (dose: 150.0 mg/kg/injection, schedule: Q04DX003 (ip), vehicle: Klucel (hydroxypropylcellulose) (HPC)): 108 % of control | T/C (dose: 300.0 mg/kg/injection, schedule: Q04DX003 (ip), vehicle: Klucel (hydroxypropylcellulose) (HPC)): 96 % of control

O=NN(CCCl)C(=O)NC1[C@H](O)CCC[C@@H]1O (stereo partly drawn)
T/C (dose: 2.6 mg/kg/injection, schedule: Q01DX001 (ip), vehicle: saline): 228 % of control | T/C (dose: 4.0 mg/kg/injection, schedule: Q01DX001 (ip), vehicle: saline): 385 % of control | T/C (dose: 6.0 mg/kg/injection, schedule: Q01DX001 (ip), vehicle: saline): 455 % of control | T/C (dose: 9.0 mg/kg/injection, schedule: Q01DX001 (ip), vehicle: saline): 505 % of control | T/C (dose: 14.0 mg/kg/injection, schedule: Q01DX001 (ip), vehicle: saline): 340 % of control and 502 % of control | T/C (dose: 22.0 mg/kg/injection, schedule: Q01DX001 (ip), vehicle: saline): 256 % of control and 309 % of control

CC(=O)Nc1nc(Cl)c2ncn(C3OC(COCc4ccccc4)C(OCc4ccccc4)C3OCc3ccccc3)c2n1 (stereo not drawn)
T/C (dose: 100.0 mg/kg/injection, schedule: Q04DX003 (ip), vehicle: Klucel (hydroxypropylcellulose) (HPC)): 103 % of control | T/C (dose: 200.0 mg/kg/injection, schedule: Q04DX003 (ip), vehicle: Klucel (hydroxypropylcellulose) (HPC)): 103 % of control | T/C (dose: 400.0 mg/kg/injection, schedule: Q04DX003 (ip), vehicle: Klucel (hydroxypropylcellulose) (HPC)): 104 % of control

O=C(NC1CC1(c1ccccc1)c1ccccc1)NC1CC1(c1ccccc1)c1ccccc1 (stereo not drawn)
T/C (dose: 300.0 mg/kg/injection, schedule: Q01DX001 (ip), vehicle: other): 86 % of control

CC(=O)N(C(C)=O)N(C(C)=O)C(=O)c1ccccn1
T/C (dose: 100.0 mg/kg/injection, schedule: Q01DX001 (ip), vehicle: water): 106 % of control | T/C (dose: 200.0 mg/kg/injection, schedule: Q01DX001 (ip), vehicle: water): 101 % of control | T/C (dose: 400.0 mg/kg/injection, schedule: Q01DX001 (ip), vehicle: water): 106 % of control
